# US7026489B2, “Ketol fatty acid derivative and plant growth regulating agents” (Shiseido Company, Ltd., priority 2000, dated 2006)
# Assays:
# [1] = system: morning glory (Pharbitis nil); assay: Flower bud formation promoting activity of compounds (4) and (5) in morning glory (Example 2); type: in vivo; details: sprayed onto cotyledons, 14 hours dark, counted on day 14; FIG. 3
# Experimental: Seeds (9 g) of morning glory (variety name: Murasaki) were treated with concentrated sulfuric acid for 20 minutes, and then left to stand overnight under running water. Subsequently, the treated seeds were placed on wet sea sand for 24 hours, hilum side up, to thereby form roots. The seeds having roots were planted in sea sand to a depth of 1.5 cm to 2.0 cm, followed by culturing under continuous light (for approximately 5 days). The whole plants of the morning glory which had put forth leaves through the culture were transferred to a culture solution [KNO3 (250 mg), NH4NO3 (250 mg), KH2PO4 (250 mg), MgSO4.7H2O (250 mg), MnSO4.4H2O (1 mg), Fe-citrate n-hydrate (6 mg), H3BO3 (2 mg), CuSO4.5H2O (0.1 mg), ZnSO4.7H2O (0.2 mg), Na2MoO4.2H2O (0.2 mg), Ca(H2PO4)2.2H2O (250 mg)/distilled water (1,000 mL)]. Compound (4) or compound (5) was sprayed onto the cotyledons of the above morning glory plants at a spray volume of 2 mL per eight plants. The morning glory plants were subjected to treatment in the dark (14 hours), then raised under the application of continuous light at 26° C. for 14 days. On day 14, the number of flower buds of the morning glory plants was counted. As a control, distilled water was sprayed onto a group of plants. Compound (4) was sprayed at a concentration of 100 μM, whereas compound (5) was sprayed at concentrations of 0.001 μM to 100 μM.
# [2] = system: morning glory (Pharbitis nil); assay: Flower bud formation promoting activity of ketol fatty acid derivative II in morning glory (Example 6); type: in vivo; details: for flower bud formation promoting effect (number of flower buds per plant, % of control): sprayed at 1 μM onto cotyledons, 14 hours dark, counted on day 16, compound (4) at 1 μM and 100 μM, FIG. 6
# Experimental: Seeds (9 g) of morning glory (variety name: Murasaki) were treated with concentrated sulfuric acid for 20 minutes, and then left to stand overnight under running water. Subsequently, the treated seeds were placed on wet sea sand for 24 hours, hilum side up, to thereby form roots. The seeds having roots were planted in sea sand to a depth of 1.5 cm to 2.0 cm, followed by culturing under continuous light (for approximately 5 days). The whole plants of the morning glory which had put forth leaves through the culture were transferred to a culture solution [KNO3 (250 mg), NH4NO3 (250 mg), KH2PO4 (250 mg), MgSO4.7H2O (250 mg), MnSO4.4H2O (1 mg), Fe-citrate n-hydrate (6 mg), H3BO3 (2 mg), CuSO4.5H2O (0.1 mg), ZnSO4.7H2O (0.2 mg), Na2MoO4.2H2O (0.2 mg), Ca(H2PO4)2.2H2O (250 mg)/distilled water (1,000 mL)]. While ketol fatty acid derivative (9) of the invention, which was obtained in the above Example 5, or test compounds such as Compound (4) was directly sprayed onto the cotyledons of the above morning glory plants grown in the culture system, the morning glory plants were subjected to treatment in the dark, then raised under the application of continuous light at 26° C. for 16 days. On day 16, the number of flower buds of the morning glory plants was counted (8 plants/group). The treatment in the dark was performed overnight (for 14 hours). In FIG. 6, along the X axis, (a) represents a control (a group of plants sprayed with distilled water), (b) represents a group of plants sprayed with ketol fatty acid derivative (9) (1 μM), (c) represents a group of plants sprayed with compound (4) (1 μM) and L-isoleusine (1 μM), (d) represents a group of plants sprayed with L-isoleusine (1 μM), (e) represents a group of plants sprayed with compound (4) (1 μM), and (f) represents a group of plants sprayed with compound (4) (100 μM). The Y axis represents flower bud formation promoting activity (shown as the percentage of each group to the control group (=100%) in terms of the number of flower buds per plant). […]
# [3] = system: a broad range of plants; details: alone or in combination with norepinephrine; cited from earlier work
compound,measurement,setting,value
"CC/C=C\C[C@H]1[C@H](CC(=O)[C@H](O)CCCCCCCC(=O)O)O[C@@]2(O)CC13C(=CC2=O)NC[C@H]3O [compound (5), (9R)-11-{(2′S,8′S,10′S,11′R)-2′,8′-dihydroxy-7′-oxo-11′-[(Z)-2-pentenyl]-9′-oxa-4′-azatricyclo[6.3.1.0^1.5]dodec-5′-en-10′-yl}-9-hydroxy-10-oxoundecanoic Acid]",concentration exhibiting the same level of flower bud formation promoting activity as 100 μM compound (4),[1],0.01 µM
"CC/C=C\C/C=C\CC(=O)C(O)CCCCCCCC(=O)NC(C(=O)O)C(C)CC [ketol fatty acid derivative (9), N-[9-hydroxy-10-oxo-12(Z),15(Z)-octadecadienoyl]-L-isoleucine]","flower bud formation promoting effect (number of flower buds per plant, % of control)",[2],equal or higher flower bud formation promoting effect as compared with compound (4)
same,optimum administration concentration for flower bud formation promoting activity,"[2]; sprayed at 0.1 to 100 μM, FIG. 7",approximately 1 μM
"CC/C=C\C/C=C\CC(=O)C(O)CCCCCCCC(=O)O (centres unmarked) [compound (4), 9-hydroxy-10-oxo-12(Z),15(Z)-octadecadienoic acid]",flower bud formation promoting effect,[3],exhibit flower bud formation promoting effect
"CC[C@H](C)[C@H](N)C(=O)O [L-isoleucine, reference compound]","flower bud formation promoting effect (number of flower buds per plant, % of control)",[2],not observed
